Laboratory results as given in PubChem BioAssay (NCI).
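Briefly, cells in 96-well plates were exposed to five compound concentrations for 48 h, and endpoints were estimated by linear interpolation. The concentration for full growth arrest is given as TGI.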

Key:
Test in all cases: growth of human tumour cells (NCI), 48 h
[1] = test system: 786-0 renal
[2] = test system: A498 renal
[3] = test system: A549 NSCLC
[4] = test system: ACHN renal
[5] = test system: BT-549 breast
[6] = test system: CAKI-1 renal
[7] = test system: CCRF-CEM leukemia
[8] = test system: COLO 205 colon
[9] = test system: DU-145 prostate
[10] = test system: EKVX NSCLC
[11] = test system: HCT-116 colon
[12] = test system: HCT-15 colon
[13] = test system: HL-60(TB) leukemia
[14] = test system: HOP-62 NSCLC
[15] = test system: HOP-92 NSCLC
[16] = test system: HS 578T breast
[17] = test system: HT29 colon
[18] = test system: IGROV1 ovarian
[19] = test system: KM12 colon
[20] = test system: LOX IMVI melanoma
[21] = test system: M14 melanoma
[22] = test system: MALME-3M melanoma
[23] = test system: MCF7 breast
[24] = test system: MDA-MB-231 breast
[25] = test system: MDA-MB-435
[26] = test system: MDA-N
[27] = test system: MOLT-4 leukemia
[28] = test system: NCI-H226 lung
[29] = test system: NCI-H23 lung
[30] = test system: NCI-H460 lung
[31] = test system: NCI-H522 lung
[32] = test system: NCI/ADR-RES ovarian
[33] = test system: OVCAR-3 ovarian
[34] = test system: OVCAR-4 ovarian
[35] = test system: OVCAR-5 ovarian
[36] = test system: OVCAR-8 ovarian
[37] = test system: PC-3 prostate
[38] = test system: RPMI-8226 leukemia
[39] = test system: RXF 393 renal
[40] = test system: SF-268 CNS
[41] = test system: SF-295 CNS
[42] = test system: SF-539 CNS
[43] = test system: SK-MEL-2 melanoma
[44] = test system: SK-MEL-28 melanoma
[45] = test system: SK-MEL-5 melanoma
[46] = test system: SK-OV-3 ovarian
[47] = test system: SN12C renal
[48] = test system: SNB-19 CNS
[49] = test system: SNB-75 CNS
[50] = test system: SR leukemia
[51] = test system: SW-620 colon
[52] = test system: T-47D breast
[53] = test system: TK-10 renal
[54] = test system: U251 CNS
[55] = test system: UACC-62 melanoma
[56] = test system: UO-31 renal
[57] = test system: K-562 leukemia
[58] = test system: UACC-257 melanoma

For `NC(=O)C1CCCNC1` (stereo unspecified), the TGI [1] was greater than 100 µM, the TGI [2] was greater than 100 µM and the TGI [3] was greater than 100 µM. It also gave a TGI [4] greater than 100 µM, a TGI [5] greater than 100 µM and a TGI [6] greater than 100 µM. The TGI [7] was greater than 100 µM, the TGI [8] was greater than 100 µM and the TGI [9] was greater than 100 µM. The TGI [10] was greater than 100 µM, the TGI [11] was greater than 100 µM and the TGI [12] was greater than 100 µM. For the same compound, the TGI [13] was greater than 100 µM, the TGI [14] was greater than 100 µM and the TGI [15] was greater than 100 µM. The TGI [16] was greater than 100 µM, the TGI [17] was greater than 100 µM and the TGI [18] was greater than 100 µM. For the same compound, the TGI [19] was greater than 100 µM, the TGI [20] was greater than 100 µM and the TGI [21] was greater than 100 µM. The TGI [22] was greater than 100 µM, the TGI [23] was greater than 100 µM and the TGI [24] was greater than 100 µM. It also gave a TGI [25] greater than 100 µM, a TGI [26] greater than 100 µM and a TGI [27] greater than 100 µM. The TGI [28] was greater than 100 µM, the TGI [29] was greater than 100 µM and the TGI [30] was greater than 100 µM. For the same compound, the TGI [31] was greater than 100 µM, the TGI [32] was greater than 100 µM and the TGI [33] was greater than 100 µM. The TGI [34] was greater than 100 µM, the TGI [35] was greater than 100 µM and the TGI [36] was greater than 100 µM. For the same compound, the TGI [37] was greater than 100 µM, the TGI [38] was greater than 100 µM and the TGI [39] was greater than 100 µM. The TGI [40] was greater than 100 µM, the TGI [41] was greater than 100 µM and the TGI [42] was greater than 100 µM. It also gave a TGI [43] greater than 100 µM, a TGI [44] greater than 100 µM and a TGI [45] greater than 100 µM. The TGI [46] was greater than 100 µM, the TGI [47] was greater than 100 µM and the TGI [48] was greater than 100 µM. The TGI [49] was greater than 100 µM, the TGI [50] was greater than 100 µM and the TGI [51] was greater than 100 µM. The TGI [52] was greater than 100 µM, the TGI [53] was greater than 100 µM and the TGI [54] was greater than 100 µM. It also gave a TGI [55] greater than 100 µM and a TGI [56] greater than 100 µM.

With `CCOC(=O)CNC(=O)C(CSCC1C(=O)Nc2ccccc21)NC(=O)CCC(N)C(=O)OCC` (stereo unspecified) the TGI [1] was 4.28 µM, the TGI [2] was 8.19 µM and the TGI [3] was 6.63 µM. The TGI [4] was 3.74 µM, the TGI [5] was 7.14 µM and the TGI [6] was 2.4 µM. For the same compound, the TGI [7] was 0.79 µM, the TGI [8] was 2.54 µM and the TGI [9] was 34.4 µM. It also gave a TGI [10] of 4.47 µM, a TGI [11] of 2.97 µM and a TGI [12] of 2.53 µM. It also gave a TGI [13] of 4.7 µM, a TGI [14] of 4.99 µM and a TGI [15] of 5.03 µM. It also gave a TGI [16] of 17.6 µM, a TGI [17] of 3.02 µM and a TGI [18] of 2.83 µM. The TGI [57] was 0.948 µM, the TGI [19] was 8.33 µM and the TGI [20] was 1.64 µM. For the same compound, the TGI [21] was 4.01 µM, the TGI [22] was 4.89 µM and the TGI [23] was 3.46 µM. It also gave a TGI [24] of 3.48 µM, a TGI [25] of 3.19 µM and a TGI [26] of 5.01 µM. It also gave a TGI [28] of 5.44 µM, a TGI [29] of 5.62 µM and a TGI [30] of 20.9 µM. For the same compound, the TGI [31] was 3.59 µM, the TGI [32] was 3.02 µM and the TGI [33] was 5.65 µM. For the same compound, the TGI [34] was 9.11 µM, the TGI [35] was 3.65 µM and the TGI [36] was 11.4 µM. For the same compound, the TGI [37] was 4.9 µM, the TGI [38] was 3.09 µM and the TGI [39] was 2.72 µM. For the same compound, the TGI [40] was 6.44 µM, the TGI [41] was 6.31 µM and the TGI [42] was 0.608 µM. The TGI [43] was 4.51 µM, the TGI [44] was 3.59 µM and the TGI [45] was 3.26 µM. It also gave a TGI [47] of 3.64 µM, a TGI [48] of 20 µM and a TGI [50] of 0.546 µM. The TGI [51] was 2.73 µM, the TGI [52] was greater than 100 µM and the TGI [53] was 5.14 µM. The TGI [54] was 2.73 µM, the TGI [58] was 14.3 µM and the TGI [55] was 2.92 µM. It also gave a TGI [56] of 2.74 µM.

With `O=C(O)C1(Nc2ccc(Cl)cc2)CCCC1` the TGI [1] was greater than 100 µM, the TGI [2] was greater than 100 µM and the TGI [3] was greater than 100 µM. For the same compound, the TGI [4] was greater than 100 µM, the TGI [5] was greater than 100 µM and the TGI [6] was greater than 100 µM. For the same compound, the TGI [7] was greater than 100 µM, the TGI [8] was greater than 100 µM and the TGI [9] was greater than 100 µM. For the same compound, the TGI [10] was greater than 100 µM, the TGI [11] was greater than 100 µM and the TGI [12] was greater than 100 µM. For the same compound, the TGI [13] was greater than 100 µM, the TGI [14] was greater than 100 µM and the TGI [15] was greater than 100 µM. The TGI [16] was greater than 100 µM, the TGI [17] was greater than 100 µM and the TGI [18] was greater than 100 µM. The TGI [57] was greater than 100 µM, the TGI [19] was greater than 100 µM and the TGI [20] was greater than 100 µM. For the same compound, the TGI [21] was greater than 100 µM, the TGI [22] was greater than 100 µM and the TGI [23] was greater than 100 µM. For the same compound, the TGI [24] was greater than 100 µM, the TGI [25] was greater than 100 µM and the TGI [26] was greater than 100 µM. The TGI [28] was greater than 100 µM, the TGI [29] was greater than 100 µM and the TGI [30] was greater than 100 µM. For the same compound, the TGI [31] was greater than 100 µM, the TGI [32] was greater than 100 µM and the TGI [33] was greater than 100 µM. It also gave a TGI [34] greater than 100 µM, a TGI [35] greater than 100 µM and a TGI [36] greater than 100 µM. The TGI [37] was greater than 100 µM, the TGI [38] was greater than 100 µM and the TGI [39] was greater than 100 µM. The TGI [40] was greater than 100 µM, the TGI [41] was greater than 100 µM and the TGI [43] was greater than 100 µM. It also gave a TGI [44] greater than 100 µM, a TGI [45] greater than 100 µM and a TGI [46] greater than 100 µM. It also gave a TGI [47] greater than 100 µM, a TGI [48] greater than 100 µM and a TGI [49] greater than 100 µM. It also gave a TGI [50] greater than 100 µM, a TGI [51] greater than 100 µM and a TGI [52] greater than 100 µM. The TGI [53] was greater than 100 µM, the TGI [54] was greater than 100 µM and the TGI [55] was greater than 100 µM. The TGI [56] was greater than 100 µM.
